Among the data in patent publication US20230355626A1, “INHIBITORS OF HUMAN IMMUNODEFICIENCY VIRUS REPLICATION” (VIIV HEALTHCARE UK (NO.5) LIMITED, priority 2020, published 2023) are EC50 and CC50 values, retold here.

One series deals with recombinant NL4-3 virus. As to the kind of experiment: HIV cell culture assay (antiviral activity, luciferase readout in infected MT-2 cells). The settings on record: Human immunodeficiency virus 1, NL43, MT2. It counts as cell-based. The method, boiled down: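 MT-2 cells infected for 4-5 days with 293T-derived NL4-3 reporter virus (nef partly replaced by Renilla luciferase) in serial compound dilutions. Live-cell luciferase read-out. EC50 from median effect equation fit.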

Series [1] is described as follows: Compound cytotoxicity, XTT-based colorimetric assay. The format is cell-based. The settings on record: human; uninfected MT2 cells, day 4, XTT assay. The method, boiled down: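 Uninfected MT2 cells were treated with compound under the same protocol as the antiviral assay. Viability was read on day 4 with an XTT colorimetric assay, from which CC50 values were derived.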

As for `Cn1nc(NS(C)(=O)=O)c2c(Cl)ccc(-n3c([C@H](Cc4cc(F)cc(F)c4)NC(=O)Cn4nc(C(F)F)c5c4C(F)(F)[C@@H]4C[C@H]54)nc4nc(OC5CC=CC5)ccc4c3=O)c21` (atropisomer, axis not shown; (P)) [Example 1, N-((S)-1-((3P)-3-(4-chloro-1-methyl-3-(methylsulfonamido)-1H-indazol-7-yl)-7-(cyclopent-3-en-1-yloxy)-4-oxo-3,4-dihydropyrido[2,3-d]pyrimidin-2-yl)-2-(3,5-difluorophenyl)ethyl)-2-((3bS,4aR)-3-(difluoromethyl)-5,5-difluoro-3b,4,4a,5-tetrahydro-1H-cyclopropa[3,4]cyclopenta[1,2-c]pyrazol-1-yl)acetamide], the EC50 in the series on recombinant NL4-3 virus worked out at 24 pM. In series [1], the cytotoxic concentration (CC50) at 4 day is over 100000 pM.
Consider `Cn1nc(NS(C)(=O)=O)c2c(Cl)ccc(-n3c([C@H](Cc4cc(F)cc(F)c4)NC(=O)Cn4nc(C(F)F)c5c4C(F)(F)[C@@H]4C[C@H]54)nc4nc(OCCC5CC5(F)F)ccc4c3=O)c21` (stereo partly drawn) [Example 38, N-((1S)-1-((3P,3P)-3-(4-chloro-1-methyl-3-(methylsulfonamido)-1H-indazol-7-yl)-7-(2-(2,2-difluorocyclopropyl)ethoxy)-4-oxo-3,4-dihydropyrido[2,3-d]pyrimidin-2-yl)-2-(3,5-difluorophenyl)ethyl)-2-((3bS,4aR)-3-(difluoromethyl)-5,5-difluoro-3b,4,4a,5-tetrahydro-1H-cyclopropa[3,4]cyclopenta[1,2-c]pyrazol-1-yl)acetamide], for which, in the series with recombinant NL4-3 virus, the EC50 stood at 37 pM. In series [1], this compound came in with a CC50 at 4 day of over 100000 pM.
Take `Cn1nc(NS(C)(=O)=O)c2c(Cl)ccc(-n3c([C@H](Cc4cc(F)cc(F)c4)NC(=O)Cn4nc(C(F)F)c5c4C(F)(F)[C@@H]4C[C@H]54)nc4nc(OCCOCC(F)(F)F)ccc4c3=O)c21` (atropisomer, axis not shown; (P)) [Example 26, N-((S)-1-((3P)-3-(4-chloro-1-methyl-3-(methylsulfonamido)-1H-indazol-7-yl)-4-oxo-7-(2-(2,2,2-trifluoroethoxy)ethoxy)-3,4-dihydropyrido[2,3-d]pyrimidin-2-yl)-2-(3,5-difluorophenyl)ethyl)-2-((3bS,4aR)-3-(difluoromethyl)-5,5-difluoro-3b,4,4a,5-tetrahydro-1H-cyclopropa[3,4]cyclopenta[1,2-c]pyrazol-1-yl)acetamide]: the EC50 with recombinant NL4-3 virus amounted to 24 pM. In series [1], the CC50 at 4 day was over 100000 pM.
For `Cn1cc(CCOc2ccc3c(=O)n(-c4ccc(Cl)c5c(NS(C)(=O)=O)nn(C)c45)c([C@H](Cc4cc(F)cc(F)c4)NC(=O)Cn4nc(C(F)F)c5c4C(F)(F)[C@@H]4C[C@H]54)nc3n2)cn1` (atropisomer, axis not shown; (P)) [Example 12, N-((S)-1-((3P,3P)-3-(4-chloro-1-methyl-3-(methylsulfonamido)-1H-indazol-7-yl)-7-(2-(1-methyl-1H-pyrazol-4-yl)ethoxy)-4-oxo-3,4-dihydropyrido[2,3-d]pyrimidin-2-yl)-2-(3,5-difluorophenyl)ethyl)-2-((3bS,4aR)-3-(difluoromethyl)-5,5-difluoro-3b,4,4a,5-tetrahydro-1H-cyclopropa[3,4]cyclopenta[1,2-c]pyrazol-1-yl)acetamide] the same measures were 140 pM and over 100000 pM.
As to `Cn1nc(NS(C)(=O)=O)c2c(Cl)ccc(-n3c([C@H](Cc4cc(F)cc(F)c4)NC(=O)Cn4nc(C(F)F)c5c4C(F)(F)[C@@H]4C[C@H]54)nc4nc(Oc5ccccc5F)ccc4c3=O)c21` (atropisomer, axis not shown; (P)) [Example 37, N-((S)-1-((3P)-3-(4-chloro-1-methyl-3-(methylsulfonamido)-1H-indazol-7-yl)-7-(2-fluorophenoxy)-4-oxo-3,4-dihydropyrido[2,3-d]pyrimidin-2-yl)-2-(3,5-difluorophenyl)ethyl)-2-((3bS,4aR)-3-(difluoromethyl)-5,5-difluoro-3b,4,4a,5-tetrahydro-1H-cyclopropa[3,4]cyclopenta[1,2-c]pyrazol-1-yl)acetamide], the 50% effective concentration (EC50) with recombinant NL4-3 virus is 81 pM. The same compound returned a 50% cytotoxic concentration (CC50) at 4 day in series [1] of over 100000 pM.
